Test [1] relates to Acinetobacter baylyi. Description: Antimicrobial activity against Acinetobacter baylyi ADP1 harboring pMMCU1 plasmid expressing bla-OXA-24 gene by microdilution method. It is filed as functional.
Test [2] has as its system Acinetobacter baylyi. Put plainly: Antimicrobial activity against Acinetobacter baylyi ADP1 by microdilution method. The class given is functional. A general note: Dilution methods test growth across graded concentrations, often in twofold steps.

Each structure is given as a SMILES string. Values after ≈ are worked out from the molar mass of the structure shown.

In general, MIC refers to the lowest concentration found to suppress growth. A lower MIC goes with inhibition by little substance. As for `C[C@@H](O)[C@H]1C(=O)N2C(C(=O)O)=C(S[C@@H]3CN[C@H](C(=O)N(C)C)C3)[C@H](C)[C@H]12` [MEROPENEM], the results for the minimal inhibitory concentration (MIC) in test [1] and in test [2] were above 32 µg/mL and 0.25 µg/mL (≈ 0.652 µM), respectively.
In the same order, the values of `C[C@@H](O)[C@H]1C(=O)N2C(C(=O)O)=C(SCCNC=N)C[C@H]12` [IMIPENEM ANHYDROUS] are above 32 µg/mL and 0.094 µg/mL (≈ 0.314 µM).

Values taken from ChEMBL document CHEMBL1671694, “OXA-24 carbapenemase gene flanked by XerC/XerD-like recombination sites in different plasmids from different Acinetobacter species isolated during a nosocomial outbreak” (2010).
